In publication PMC11730078, “Virtual screening and evaluation of bioactive peptides from Haliotis discus hannai as potential HMGCR inhibitors for hyperlipidemia treatment” (Frontiers in Nutrition, 2024):

Key:
[1] = tested on: HMG-CoA reductase (HMGCR); test: HMG-CoA reductase inhibitory activity (HMG-CoA Reductase Assay Kit, Abcam ab204701); type: biochemical; details: 1 mM peptide, 0.5 mM Atorvastatin as positive control, OD340, 37°C, mean ± SD, three biological replicates, Figure 3B
Protocol: The HMG-CoA reductase inhibitory activities were determined using the HMG-CoA Reductase Assay Kit (Abcam, ab204701) as previously described ([19]). Enzyme activity was measured by monitoring the decrease in absorbance at 340 nm and 37°C, following the manufacturer’s instructions. The reaction mix consisted of a mixture of HMG-CoA:NADPH:HMG-CoA reductase buffer assay (12:4:174; 190 μL). In a 96-well flat-bottomed microtiter plate, 5 μL of HMG-CoA reductase, 2 μL of inhibitor, and 3 μL of buffer were mixed. The addition of 190 μL of reaction mix marked the initiation of the enzyme reaction. OD340 was measured for 10 min at 2-min intervals at 37°C.
HMGCR inhibition rate (%)=−ΔA340nm/ΔTEnzyme−−ΔA340nm/ΔTEnzyme+Inhubitor/−ΔA340nm/ΔTEnzyme×100.

[2] = Inhibition of cholesterol micelle solubility in vitro; details: for Cholesterol micelle solubility inhibition rate: 1 mM peptide, micelles of 10 mM sodium taurocholate, 0.4 mM cholesterol, 1 mM oleic acid, pH 7.4, 37°C, 24 h, mean ± SD, three biological replicates, Figure 3C, SD; for Inhibition of cholesterol micellar solubility, comparison and dose trend: peptide 50, 100, 200, 400 μM, Figure 4D
Protocol: After sequence identification, the peptide sequences were obtained through solid-phase synthesis by GenScript (Nanjing, China). The inhibitory effect of the peptide on cholesterol micelle solubility was measured as previously described with some modifications ([18]). Micellar solutions (1 mL) contained 10 mM sodium taurocholate, 0.4 mM cholesterol, 1 mM oleic acid, 132 mM NaCl, and 15 mM sodium phosphate (pH 7.4). […] After mixing, the samples were ultrasonically emulsified at 37°C for 30 min and incubated on a shaker at 37°C for 24 h. The samples were centrifuged at 8,000 × g for 20 min, and a total cholesterol (T-CHO) assay kit (Jiancheng Bioengineering Institute, Nanjing, China) was used for measurement. The inhibitory effect of the peptide solution on cholesterol micelle solubility was calculated as follows: (1) Cholesterol micelle solubility inhibition rate() =C0−C1/C0×100 where C0 is the initial cholesterol concentration in the micelles, and C1 is the cholesterol concentration in the micelles after sample addition.

[3] = tested on: high-fat Hep-G2 cells; test: TC content in FFAs-induced high-fat Hep-G2 cells; type: cell-based; details: 24 h; for TC level in high-fat Hep-G2 cells, dose effect: peptide 50, 100, 200, 400 μM with FFAs
Protocol: Cells grown to the log phase were digested, gently mixed using a pipette, and collected via centrifugation. The cells were then resuspended in a culture medium and homogenized using a pipette. A hemocytometer was used to count the cells diluted to 2 × 10^5/mL using a complete medium. Then, 250 μL of the cell suspension was pipetted into a 48-well cell culture plate for incubation in a CO2 incubator at 37°C for 14–16 h. […] Control groups were performed without peptides or FFAs. The model groups were treated with FFAs only, without peptides. Next, the cells were washed with DPBS and lysed for 45 min on ice using 1.5% Triton-X100. TC, TG, HDL-C, and LDL-C levels were determined using Nanjing Jiancheng assay kits.

[4] = tested on: high-fat Hep-G2 cells; test: TG content in FFAs-induced high-fat Hep-G2 cells; type: cell-based; details: 400 μM peptide with FFAs, 24 h; for TG content in high-fat Hep-G2 cells: mean ± SD, three biological replicates, Figure 4C, SD
Protocol: Cells grown to the log phase were digested, gently mixed using a pipette, and collected via centrifugation. The cells were then resuspended in a culture medium and homogenized using a pipette. A hemocytometer was used to count the cells diluted to 2 × 10^5/mL using a complete medium. Then, 250 μL of the cell suspension was pipetted into a 48-well cell culture plate for incubation in a CO2 incubator at 37°C for 14–16 h. After reaching 80–90% confluency, cells were incubated with peptides (50, 100, 200, or 400 μM) and FFAs (10% oleic acid and palmitic acid) for 24 h. Control groups were performed without peptides or FFAs. The model groups were treated with FFAs only, without peptides. Next, the cells were washed with DPBS and lysed for 45 min on ice using 1.5% Triton-X100. TC, TG, HDL-C, and LDL-C levels were determined using Nanjing Jiancheng assay kits.

Substance	HMGCR inhibition rate [1]	Cholesterol micelle solubility inhibition rate [2]	Inhibition of cholesterol micellar solubility, comparison and dose trend [2]	TC level in high-fat Hep-G2 cells, dose effect ([3]; Figure 4B)	Decrease of TG content compared with model group [4]	TG content in high-fat Hep-G2 cells [4]	TC level in high-fat Hep-G2 cells compared with model group ([3]; 400 μM peptide with FFAs, Figure 4B)	TC accumulation in high-fat Hep-G2 cells compared with model group ([3]; peptide 1 mM with FFAs, Figure 3A)
APDMAFPR	59.55% ± 0.46	35.87% ± 2.56	weakest inhibitory effect	not significant	34.86% ± 0.08	0.31 ± 0.04 mmol/gprot	–	–
DYPRPW	51.81% ± 0.70	37.29% ± 1.45	superior inhibition rate	the higher the concentration, the lower the TC level	–	–	significantly lower than that in the model group	–
LPAYPMP	54.65% ± 0.36	41.55% ± 5.48	showed inhibition of cholesterol micellar solubility	not significant	–	–	–	–
QDAVMPNPF	–	47.94% ± 0.58	showed inhibition of cholesterol micellar solubility	not significant	31.31% ± 0.10	0.33 ± 0.05 mmol/gprot	–	–
SPADIGFH [abalone viscera peptide, top 20 after virtual screening, synthesized by GenScript]	53.89% ± 3.89	45.23% ± 3.68	–	–	–	–	–	–
WFKTM [abalone viscera peptide, top 20 after virtual screening, synthesized by GenScript]	–	–	–	–	–	–	–	all peptides, except for WFKTM, alleviated TC accumulation
